Where two headings read alike, the source gives them in different places.
Columns and labels:
[1] = Plasma, brain and liver levels after oral gavage in C57BL/6 mice; assay type: in vivo, mouse
Source text: Below, we first report the experimental detail for preparation and isolation of Compound III, and then the biological, in vivo data is described.

Tg4510 mice [2] = experiment: Neuronal counts in CA1 and CA3 regions of hippocampus (stereology) in Tg4510 mice; assay type: in vivo, mouse; conditions: Tg4510 mice at 5.5 months
Protocol: (§1) Mice were euthanized by cervical dislocation at 5. 5 months followed by decapitation. Brains were immediately removed and divided down the midline into two hemispheres. The right hemisphere was placed into 20 mL of 4% paraformaldehyde (prepared fresh on the day of sacrifice) and stored overnight at 4° C. The following day, the brains were transferred to a tube containing 20 mL TBS (pH 7.4, 20 mM TRIS, 100 mM NaCl) and then stored at 4° C. until processing. Right hemispheres were embedded in paraffin, sectioned at 5 microns, and mounted on positively charged glass slides. The slides were dried overnight in a 60° C. oven and stored at room temperature until stained. The left hemispheres were frozen (within 2 minutes) on dry ice.
Nissl stained slides were scanned and digitized using the Aperio ScanScope (Aperio Technologies, Inc., Vista, Calif.). Images of the entire brain section were captured at high resolution and stored as files within Spectrum (Aperio software). To process images, a region of 4,000×4,000 pixels including the entire hippocampus was captured using the extract tool and saved as a JPEG file for importing into Metamorph (Molecular Devices, Sunnyvale, Calif.) for quantification of cell loss within the CA1 and CA3 regions of the hippocampus. A modified version of the single section dissector method (Moller et al. 1990) was utilized to quantify cell loss because of its suitability for thin, paraffin-embedded tissue sections. To obtain relative numbers of cells, every fifth section was collected as the paraffin-embedded brains were cut sagitally between the Bregma and approximately 0.75 mm laterally. Three regions were drawn and counted per section using Metamorph software. The same regions were used for every image and 5 sections were counted per animal, 5 slides apart. Statistics were performed using ANOVA followed by Dunnett's post-hoc test.
Previous studies had shown that Tg4510 mice lost about 60% of their neurons in the CA1 region of the hippocampus at 5.5 months (Santacruz et al. 2005). […]

[3] = Brain half-life of epothilone D in rats; assay type: in vivo; conditions: 1 mg/kg, Rat, IV, 1 mpk
Source text: (§2) To calculate an accurate brain half-life for a long half-life compound, measurements need to be taken for several half lives after a single dose.

[4] = Plasma, brain and liver levels of epothilone D after bolus IV in triple transgenic mice; assay type: in vivo, mouse; conditions: bolus IV 5 mpk; for concentration at […]: .33 hr
Source text: as §2

Tg4510 mice [5] = experiment: Morris water maze (MWM) in Tg4510 mice; conditions: vs vehicle; for MWM acquisition: locating the hidden platform: tested at 4.5 months; for MWM probe trial % pathlength in target quadrant / MWM probe trial number of platform crossings: probe 18 h after 5 days of training
Protocol: A 10× stock solution was made in 100% ethanol, and diluted just before dosing. Mice were dosed in 3 cohorts and data were combined to give a final N of 12, 9, and 15 for the vehicle, 1 mpk, and 10 mpk groups, respectively. Mice were dosed in a chemical fume hood.
Tg4510 mice were used in this study. […] At 9 weeks (+/−15 days) of age, mice were acclimated to handling with a single mock injection of phosphate buffered saline, performed within a chemical fume hood. The mice were then housed in cages kept within the chemical fume hood for 48 hours. Following the 48-hour period, the mice were transferred to clean cages and brought to a behavioral suite for testing.
Mice were again tested in the MWM after the eighth dose (19 weeks of age+/−15 days) for six days. After behavioral testing, dosing resumed until the animals were 5.5 months of age at the time of harvest.
Mice were tested in Morris water maze (MWM) on two occasions, once prior to dosing, and once two months after dosing began. The second round of water maze testing was performed in another testing room. Mice were acclimated to the experimental room for 2-3 days prior to testing. The mice were placed in a water maze of 1.5 m diameter, with a 16 cm diameter platform placed 0.5-1.0 cm under the surface of the water. The water was made opaque with non-toxic white paint and the water temperature was regulated between 22-25° C.
The mice were given 4 trials per day of up to 90 seconds each with a 10 second rest period on the platform after each trial. […] The testing room rooms each had large external cues to allow the mice to orient as they learned the location of the platform. Mice were placed under a heat lamp to prevent hypothermia after each trial. The interval between trials ranged from 25 to 45 minutes. The mice were tracked using HVS Image Advanced Tracker VP200 software (Buckingham, UK) and the total distance traveled until reaching of the platform was determined.
Statistical analysis for acquisition path length from the five trials involved a repeated measures analysis of variance. […] If the analysis indicated a significant effect of treatment, or a treatment-by-trial interaction, differences between the 1 mpk and 10 mpk groups were compared to the vehicle group using Dunnett's test. The probe pathlengths in each quadrant, and number of platform crossings in each quadrant, were analyzed using Dunnett's test. In all cases, 1 mpk and 10 mpk groups were compared to the vehicle group. All calculations were done in SAS, version 9.1, under the Windows XP Professional operating system.

neurofibrillary tangles = experiment: Gallyas silver staining for neurofibrillary tangles in Tg4510 mice; assay type: in vivo, mouse; conditions: cortex and hippocampus, vs vehicle
Protocol: as §1
The Gallyas staining method was used to detect silver-positive neurofibrillary tangles and dystrophic neurites. Paraffin-embedded thin sections (5 microns) mounted on glass slides were deparaffinized and rehydrated via serial incubation in xylene (two times for 10 minutes each), 100% ethanol (two times for 10 minutes each), 95% MeOH/5% H2O2 (30 minutes), 95% ethanol (two times for 5 minutes each), 80% ethanol (two times for 5 minutes each), 50% ethanol (two times for 5 minutes each), and water (two times for 5 minutes each). […]

[6] = mouse, brain, 10 mg/kg, C57BL/6 mice, oral gavage 10 mpk, read-out: Brain conc
[7] = mouse, brain, 35 mg/kg, C57BL/6 mice, oral gavage 35 mpk, read-out: Brain conc
[8] = mouse, plasma, 10 mg/kg, C57BL/6 mice, oral gavage 10 mpk, read-out: Plasma conc
[9] = mouse, plasma, 35 mg/kg, C57BL/6 mice, oral gavage 35 mpk, read-out: Plasma conc
[10] = triple transgenic (Oddo et al. 2003), mouse, brain, 5 mg/kg, read-out: Brain conc
[11] = triple transgenic (Oddo et al. 2003), mouse, plasma, 5 mg/kg, read-out: Plasma conc

C/C1=C/C[C@@H](/C(C)=C/c2csc(C)n2)OC(=O)C[C@H](O)C(C)(C)C(=O)[C@H](C)[C@@H](O)[C@@H](C)CCC1 [Epothilone D, epothilone D]
Plasma conc ([1]; C57BL/6 mice, oral gavage 10 mpk, 48 hr): (0.1 nM) | Plasma conc ([1]; C57BL/6 mice, oral gavage 10 mpk, 96 hr): (0.1 nM) | Plasma conc ([1]; C57BL/6 mice, oral gavage 35 mpk, 24 hr): (0.5 nM) | concentration at 1 h [1, 6]: 10.6 nM | concentration at 3 h [1, 6]: 7 nM | concentration at 4 h [1, 6]: 9.9 nM | concentration at 8 h [1, 6]: 6.4 nM | concentration at 13 h [1, 6]: 6.3 nM | concentration at 24 h ([1]; mouse, brain, 10 mg/kg, C57BL/6 mice, oral gavage 10 mpk, 24 hr, read-out: Brain conc): 9.1 nM | concentration at 48 h ([1]; mouse, brain, 10 mg/kg, C57BL/6 mice, oral gavage 10 mpk, 48 hr, read-out: Brain conc): 5.4 nM | concentration at 96 h ([1]; mouse, brain, 10 mg/kg, C57BL/6 mice, oral gavage 10 mpk, 96 hr, read-out: Brain conc): 3 nM | concentration at 1 hr [1, 7]: 61.3 nM | concentration at 5 hr [1, 7]: 76.9 nM | concentration at 24 hr ([1]; mouse, brain, 35 mg/kg, C57BL/6 mice, oral gavage 35 mpk, 24 hr, read-out: Brain conc): 118 nM | concentration at 1 h [1, 8]: 15.1 nM | concentration at 3 h [1, 8]: 3.9 nM | concentration at 4 h [1, 8]: 2.5 nM | concentration at 8 h [1, 8]: 1.4 nM | concentration at 13 h [1, 8]: 0.1 nM | concentration at 24 h ([1]; mouse, plasma, 10 mg/kg, C57BL/6 mice, oral gavage 10 mpk, 24 hr, read-out: Plasma conc): 0.2 nM | concentration at 1 hr [1, 9]: 52.7 nM | concentration at 5 hr [1, 9]: 3.6 nM | time brain levels were maintained ([1]; oral dosing 10 and 35 mpk (also IV, Table 2)): more than 24 h | CA3 total cell count (Tg4510 mice [2]; 1 mpk IP weekly, vs vehicle): significant differences between the 1 mpk and non-transgenic mice compared to vehicle treated mice | CA1 neuronal count (Tg4510 mice [2]; 1 mpk IP weekly, vs vehicle, p<0.01): substantially more CA1 neurons than vehicle-treated animals | CA1 neuronal count (Tg4510 mice [2]; 10 mpk IP weekly): intermediate between the vehicle-treated mice and the mice treated with 1 mpk | half-life [3]: 31 h | retention in brain tissue after a single dose [4]: at least 168 h | Plasma conc ([4]; 96 hr): <LLQ (0.6 nM) | Plasma conc ([4]; 168 hr): <LLQ (0.6 nM) | concentration at 24 h ([4]; mouse, liver, 5 mg/kg, below LLQ, read-out: liver levels): < 49 nM | concentration at 0.05 h [4, 10]: 1130 nM | concentration at 0.17 h [4, 10]: 595 nM | concentration at 1 h [4, 10]: 422 nM | concentration at 3 h [4, 10]: 468 nM | concentration at 6 h [4, 10]: 141 nM | concentration at 16 h [4, 10]: 210 nM | concentration at 24 h [4, 10]: 82.7 nM | concentration at 96 h ([4]; triple transgenic (Oddo et al. 2003), mouse, brain, 5 mg/kg, 96 hr, read-out: Brain conc): 25.2 nM | concentration at 168 h ([4]; triple transgenic (Oddo et al. 2003), mouse, brain, 5 mg/kg, 168 hr, read-out: Brain conc): 16.3 nM | concentration at […] [4, 10]: 529 nM | concentration at 0.05 h [4, 11]: 25100 nM | concentration at 0.17 h [4, 11]: 2000 nM | concentration at 1 h [4, 11]: 325 nM | concentration at 3 h [4, 11]: 70 nM | concentration at 6 h [4, 11]: 43 nM | concentration at 16 h [4, 11]: 0.8 nM | concentration at 24 h [4, 11]: 0.9 nM | concentration at […] [4, 11]: 549 nM | MWM acquisition: locating the hidden platform (Tg4510 mice [5]; 1 mpk IP once weekly, p<0.01): able to locate the hidden platform in the MWM more quickly | MWM probe trial % pathlength in target quadrant (Tg4510 mice [5]; 1 mpk IP weekly for 2 months): statistically significant differences in both measures as compared with the vehicle group | MWM probe trial number of platform crossings (Tg4510 mice [5]; 1 mpk IP weekly for 2 months): statistically significant differences in both measures as compared with the vehicle group | MWM acquisition: locating the hidden platform (Tg4510 mice [5]; 10 mpk IP once weekly): trend toward improvement | MWM probe trial % pathlength in target quadrant (Tg4510 mice [5]; 10 mpk IP weekly for 2 months): significantly greater performance compared to the vehicle group | MWM probe trial number of platform crossings (Tg4510 mice [5]; 10 mpk IP weekly for 2 months): not when using the number of platform crossings measure | Gallyas silver staining: neurofibrillary tangles (neurofibrillary tangles; 1 mpk IP weekly): much lower levels of neurofibrillary tangles than did vehicle-treated mice | Gallyas silver staining: neurofibrillary tangles (neurofibrillary tangles; 10 mpk IP weekly): trend toward improvement
